Molecules are shown by their SMILES.

For assay [1], the target named is T1, PRMT5 (Homo sapiens, UniProt O14744).
T1 construct: purchased Viva (custom protein)
Kind of assay: PRMT5 biochemical IC50 assay with SAM as cofactor. The settings on record: PRMT5, SAM as cofactor; read-out: SAM IC50.

In assay [2] the target is T1, PRMT5. Kind of assay: PRMT5 biochemical IC50 assay with no cofactor. To be noted: PRMT5, no cofactor; read-out: No Cofactor/rel IC50. From the text: Table 1 indicates IC50 values (μM) against PRMT5 for exemplary compounds in the presence of SAM as cofactor, with no cofactor, and with MTA as cofactor, respectively (columns 4-6). […] Ki values can be calculated from the IC50 values as described in the Examples section. As detailed in the Examples section, for the assay performed in the presence of SAM, IC50=Ki×1.5 (Ki=IC50/1.5).

Assay [3] addresses T1, PRMT5. In words: PRMT5 biochemical IC50 assay with MTA as cofactor. To be noted: PRMT5, MTA as cofactor; read-out: MTA IC50.
Assay [4] relates to HAP1 MTAP-intact cell line. In words: SDMA in-cell western assay, HAP1 MTAP-intact. To be noted: Homo sapiens, HAP1, SDMA in-cell western, HAP1 MTAP-intact; read-out: MTAP HAP1 intact IC50. Format: cell-based. The method in brief: (§1)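 IC50 values come from SDMA signal quantified by in-cell western in two HAP1 lines, one with native MTAP levels and one lacking MTAP.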
Assay [5] relates to HAP1 MTAP-deleted cell line. In words: SDMA in-cell western assay, HAP1 MTAP-deleted. Format: cell-based. To be noted: for IC50: Homo sapiens, HAP1, SDMA in-cell western, HAP1 MTAP-deleted; for MTAP intact/deleted ratio: SDMA in-cell western. The method in brief: as §1
In assay [6] the test system is HAP1 MTAP-deleted cell line. In words: Viability assay, MTAP-deleted cell line. To be noted: Homo sapiens, HAP1, viability assay, MTAP-deleted cell line; read-out: HAP1 MTAP deleted viability. Format: cell-based. From the text: Table 1 additionally indicates IC50 values in a viability assay for the MTAP-deleted cell line (column 10), indicating the effect of treatment with compound on cell survival.

[7] abbreviates: read-out: HAP 1 MTAP deleted IC50.
[8] abbreviates: IC50 ratio HAP1 MTAP-intact / HAP1 MTAP-deleted.
Setting [9] is: read-out: HAP1 MTAP deleted IC50.
Setting [10] is: IC50 ratio HAP1 MTAP-intact vs HAP1 MTAP-deleted.

T1 sequence (O14744 whole entry): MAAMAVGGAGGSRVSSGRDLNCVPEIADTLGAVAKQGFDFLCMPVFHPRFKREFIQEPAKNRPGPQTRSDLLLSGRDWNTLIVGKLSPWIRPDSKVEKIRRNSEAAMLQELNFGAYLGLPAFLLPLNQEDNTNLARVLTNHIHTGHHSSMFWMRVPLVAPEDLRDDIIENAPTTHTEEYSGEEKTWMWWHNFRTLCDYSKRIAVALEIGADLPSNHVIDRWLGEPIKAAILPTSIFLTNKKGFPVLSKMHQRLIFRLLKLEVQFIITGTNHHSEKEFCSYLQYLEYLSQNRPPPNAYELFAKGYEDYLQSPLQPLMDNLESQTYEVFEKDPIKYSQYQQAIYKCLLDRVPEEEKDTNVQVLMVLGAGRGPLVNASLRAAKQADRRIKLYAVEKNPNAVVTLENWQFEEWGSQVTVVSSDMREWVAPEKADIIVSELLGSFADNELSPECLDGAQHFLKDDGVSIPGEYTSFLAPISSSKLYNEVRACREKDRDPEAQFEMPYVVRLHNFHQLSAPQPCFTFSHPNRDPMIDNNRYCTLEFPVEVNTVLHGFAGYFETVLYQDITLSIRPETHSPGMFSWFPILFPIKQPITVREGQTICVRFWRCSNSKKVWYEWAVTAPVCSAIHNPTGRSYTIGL
T1 sequence (Q9BQA1 whole entry partner): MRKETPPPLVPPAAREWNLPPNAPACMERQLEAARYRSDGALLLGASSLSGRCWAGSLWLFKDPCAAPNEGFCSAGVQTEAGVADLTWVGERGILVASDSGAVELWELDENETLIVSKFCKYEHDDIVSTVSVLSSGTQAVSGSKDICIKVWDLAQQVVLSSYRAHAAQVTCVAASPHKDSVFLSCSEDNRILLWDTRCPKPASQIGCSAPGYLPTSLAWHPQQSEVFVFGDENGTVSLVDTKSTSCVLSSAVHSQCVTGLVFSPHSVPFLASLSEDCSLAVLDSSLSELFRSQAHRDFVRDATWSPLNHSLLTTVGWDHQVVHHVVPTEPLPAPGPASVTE

`Cc1cc(NC(=O)C(=O)N2C[C@H](C)CC[C@H]2c2ccc(F)c3[nH]ncc23)cnc1N` (racemic) [Compound 1019]: the IC50 at PRMT5 [1] is 50 to 500 nM; on PRMT5 [2], 50 to 500 nM; on PRMT5 [3], 50 to 500 nM; in assay [4] it was above 1000 nM; in assay [5] (setting [7]) it was below 100 nM; in assay [6], 1000 to 10000 nM. Further, the MTAP intact/deleted ratio entry in assay [5] (setting [8]) is on record as “A (an IC50 ratio greater than or equal to 10 fold)”.

As for `Cc1cc(NC(=O)C(=O)N2C[C@H](C)CC[C@H]2c2cncc(Cl)c2)cnc1N` (racemic) [Compound 1025, N-(6-amino-5-methyl-3-pyridyl)-2-[(2R,5S)-2-(5-chloro-3-pyridyl)-5-methyl-1-piperidyl]-2-oxo-acetamide], the IC50 was above 500 nM at PRMT5 [1]; 50 to 500 nM on PRMT5 [2]; 50 to 500 nM on PRMT5 [3]; above 1000 nM in assay [4]; below 100 nM in assay [5] (setting [7]); 1000 to 10000 nM in assay [6]. Also, the MTAP intact/deleted ratio entry in assay [5] (setting [8]) is listed as “A (an IC50 ratio greater than or equal to 10 fold)”.

For the compound `CC[C@@H]1CC[C@@H](c2cn[nH]c2)N(C(=O)C(=O)Nc2cnc(N)c(C)c2)C1` (racemic) [Compound 1032, N-(6-amino-5-methyl-3-pyridyl)-2-[(2R,5S)-5-ethyl-2-(1H-pyrazol-4-yl)-1-piperidyl]-2-oxo-acetamide], the IC50 at PRMT5 [1] is 50 to 500 nM; at PRMT5 [2], 50 to 500 nM; on PRMT5 [3], 50 to 500 nM; in assay [4], 100 to 1000 nM; in assay [5] (setting [7]), below 100 nM; in assay [6] it was 1000 to 10000 nM. The MTAP intact/deleted ratio entry in assay [5] (setting [8]) is “B (an IC50 ratio greater than or equal to 3 fold but lower than 10 fold)”.

In the case of `CCc1cc(NC(=O)C(=O)N2C[C@@H](C)CC[C@@H]2c2ccc3nn([C@H]4CCN(C)C4)cc3c2)cnc1N` (racemic) [Compound 1091, N-(6-Amino-5-ethyl-3-pyridyl)-2-oxo-2-[rac-(2R,5S)-5-methyl-2-[2-[rac-(3S)-1-methylpyrrolidin-3-yl]indazol-5-yl]-1-piperidyl]acetamide], the IC50 on PRMT5 [1] was 50 to 500 nM; at PRMT5 [2], below 50 nM; on PRMT5 [3] it was below 50 nM; in assay [4], 100 to 1000 nM; in assay [5] (setting [9]), below 100 nM; in assay [6], below 1000 nM. Moreover, in assay [5] (setting [10]), the MTAP intact/deleted ratio entry is listed as “A (an IC50 ratio greater than or equal to 10 fold)”.

On to `CCc1cc(NC(=O)C(=O)N2C[C@@H](C)[C@@H](OC(C)C)C[C@@H]2c2ccc3scnc3c2)cnc1N` (racemic) [Compound 1094, N-(6-Amino-5-ethyl-3-pyridyl)-2-[(2S,4R,5S)-2-(1,3-benzothiazol-5-yl)-4-isopropoxy-5-methyl-1-piperidyl]-2-oxo-acetamide], for which the IC50 on PRMT5 [1] is 50 to 500 nM; at PRMT5 [2], 50 to 500 nM; at PRMT5 [3], 50 to 500 nM; in assay [4], 100 to 1000 nM; in assay [5] (setting [9]), below 100 nM; in assay [6], below 1000 nM. The MTAP intact/deleted ratio result in assay [5] (setting [10]) is reported as “A (an IC50 ratio greater than or equal to 10 fold)”.

For `CCc1cc(NC(=O)C(=O)N2C[C@@H](C)CC[C@@H]2c2ccc3cn(C4CCN(C)CC4)nc3c2)cnc1N` (racemic) [Compound 1096, N-(6-Amino-5-ethyl-3-pyridyl)-2-oxo-2-[rac-(2R,5S)-5-methyl-2-[2-(1-methyl-4-piperidyl)indazol-6-yl]-1-piperidyl]acetamide], the IC50 was below 50 nM on PRMT5 [1]; below 50 nM at PRMT5 [2]; below 50 nM on PRMT5 [3]; below 100 nM in assay [4]; below 100 nM in assay [5] (setting [9]); below 1000 nM in assay [6]. Besides, in assay [5] (setting [10]), the MTAP intact/deleted ratio entry is listed as “A (an IC50 ratio greater than or equal to 10 fold)”.

For the compound `CCc1cc(NC(=O)C(=O)N2CC(C)CCC2c2ccc3sc(C4CCN(C)CC4C)nc3c2)cnc1N` (racemic) [Compound 1098, N-(6-amino-5-ethyl-3-pyridyl)-2-oxo-2-[rac-(2R,5S)-5-methyl-2-[2-[rac-(3R,4S)-1,3-dimethyl-4-piperidyl]-1,3-benzothiazol-5-yl]-1-piperidyl]acetamide], the IC50 is below 50 nM at PRMT5 [1]; below 50 nM at PRMT5 [2]; below 50 nM on PRMT5 [3]; below 100 nM in assay [4]; below 100 nM in assay [5] (setting [9]); below 1000 nM in assay [6]. Also, the MTAP intact/deleted ratio result in assay [5] (setting [10]) is listed as “B (an IC50 ratio greater than or equal to 3 fold but lower than 10 fold)”.

As for `CCc1cc(NC(=O)C(=O)N2C[C@@H](C)CC[C@@H]2c2ccc(N3CCN(C)C[C@@H]3C)nc2)cnc1N` (racemic) [Compound 1099, N-(6-amino-5-ethyl-3-pyridyl)-2-[(2R,5S)-2-[6-[(2S)-2,4-dimethylpiperazin-1-yl]-3-pyridyl]-5-methyl-1-piperidyl]-2-oxo-acetamide], the IC50 on PRMT5 [1] is 50 to 500 nM; on PRMT5 [2], below 50 nM; on PRMT5 [3] it was below 50 nM; in assay [4] it was 100 to 1000 nM; in assay [5] (setting [9]), below 100 nM; in assay [6] it was below 1000 nM. Further, the MTAP intact/deleted ratio entry in assay [5] (setting [10]) is given as “A (an IC50 ratio greater than or equal to 10 fold)”.

As for `Cc1cc(NC(=O)C(=O)N2C[C@@H](C)CC[C@@H]2c2ccc3sc(-c4cnn(C)c4)nc3c2)cnc1N` (racemic) [Compound 1104, rac-N-(6-amino-5-methylpyridin-3-yl)-2-((2R,5S)-5-methyl-2-(2-(1-methyl-1H-pyrazol-4-yl)benzo[d]thiazol-5-yl)piperidin-1-yl)-2-oxoacetamide], the IC50 on PRMT5 [1] was 50 to 500 nM; on PRMT5 [2] it was below 50 nM; at PRMT5 [3], below 50 nM; in assay [4], below 100 nM; in assay [5] (setting [9]) it was below 100 nM; in assay [6], below 1000 nM. The MTAP intact/deleted ratio result in assay [5] (setting [10]) is recorded as “B (an IC50 ratio greater than or equal to 3 fold but lower than 10 fold)”.

With `Cc1cc(NC(=O)C(=O)N2C[C@H](C)CC[C@H]2c2ccc(N3CCN(C)CC3)cc2)cnc1N` (racemic) [Compound 1105, rac-N-(6-Amino-5-methyl-3-pyridyl)-2-[(2R,5S)-5-methyl-2-[4-(4-methylpiperazin-1-yl)phenyl]-1-piperidyl]-2-oxo-acetamide], the IC50 is 50 to 500 nM at PRMT5 [1]; 50 to 500 nM on PRMT5 [2]; 50 to 500 nM on PRMT5 [3]; 100 to 1000 nM in assay [4]; below 100 nM in assay [5] (setting [9]); below 1000 nM in assay [6]. In addition, the MTAP intact/deleted ratio result in assay [5] (setting [10]) is reported as “A (an IC50 ratio greater than or equal to 10 fold)”.

For the compound `CCc1cc(NC(=O)C(=O)N2C[C@@H](C)CC[C@@H]2c2ccc3sc(C4CCN(C)C(=O)C4)nc3c2)cnc1N` (mixture of isomers) [Compound 1110, N-(6-amino-5-ethylpyridin-3-yl)-2-((2R,5S)-5-methyl-2-(2-(1-methyl-2-oxopiperidin-4-yl)benzo[d]thiazol-5-yl)piperidin-1-yl)-2-oxoacetamide], the IC50 at PRMT5 [1] was 50 to 500 nM; at PRMT5 [2] it was below 50 nM; at PRMT5 [3], below 50 nM; in assay [4], 100 to 1000 nM; in assay [5] (setting [9]), below 100 nM; in assay [6], below 1000 nM. The MTAP intact/deleted ratio result in assay [5] (setting [10]) was “A (an IC50 ratio greater than or equal to 10 fold)”.

Values taken from patent publication US11999727B2 (Tango Therapeutics, Inc., priority 2020, dated 2024).
